This note sets out measurements from US20040181343A1, “Computer program products and systems for rapidly changing the solution environment around sensors” (Cellectricon AB, priority 2002, published 2004).

For the experiment, the system named is PC-12 cell. The settings on record: cell-scanning speed 250 μm/s. The source says: The flow rate was 3.24 mm/s and the cell scanning speed was 250 μm/s.
In these applications, as discussed above, both the flow rate of the fluids exiting the microchannels and the scan rate of the patch clamped cell are important. […] The width of each microchannel is 100 μm, the thickness is 50 μm, and the intermicrochannel spacing is 25 μm. The procedure used for fabricating the microchannels and for patch clamping are identical to that described in Example 2 (see above). The patch clamped cell used was a PC-12 cell, which was placed between 10 to 20 micrometers away from the outlets of the microchannels. Microchannels 1, 3, 5 and 7 were filled with PBS buffer, while microchannels 2, 4 and 6 were filled with acetylcholine. The flow rate of the fluid streams was 6.8 mm/s.
In a 7-microchannel structure, microchannels 1, 3, 5 and 7 were filled with PBS buffer, whereas microchannels 2, 4, and 6 were filled with 1 μM, 12 μM, and 200 μM nicotine, respectively. The flow rate used was […] and the cell-scanning speed was 250 μm/s. The patch-clamped cell was placed between 10 to 20 μm away from the outlet of the microchannel.

As for `CN1CCCC1c1cccnc1` (stereo not drawn) [nicotine], the Whole-cell current response entry (1 μM nicotine) is “barely discernible”. In addition, the Whole-cell current peak entry (12 μM nicotine) is “detected with good signal-to-noise ratio”. For the same compound, the “Current peak at 200 μM relative to the peak for 12 μM” value (200 μM nicotine versus 12 μM) was in the range of 15 to 20 times.
